Nine compounds from ChEMBL document CHEMBL1201862, “PubChem BioAssay data set” (2004) can be followed below.

Calls of active or inactive are those of the source.

The test system of one test is P388/ADR. Briefly: cells. Type of test: functional. The note with it: Mus musculus.
Another test relates to SN12K1. Briefly: cells. The format is functional. As to conditions: Homo sapiens.
In another test the test system is P388. In words: cells. The format is functional. The note with it: Mus musculus.
The nature of test [1]: viability of uninfected HEp-2 cells – cell-based, HTS, cytotoxicity control for RSV inhibitor project, dose response (AID 2410). As to conditions: human respiratory syncytial virus. The format is functional.
For test [2], the target named is Luciferin 4-monooxygenase (Photinus pyralis, UniProt P08659). Briefly: Counter Screen for Luciferase-based Assay Positives. [Related pubchem assays: 620, 618, 411 ]. Background: The purpose of a counterscreen is to sort out artefacts and off-target activity.
The next test concerns HT-1080. Briefly: HT1080 cell viability loss – fluorescence readout (AID 620). Type of test: functional, cell-based. The note with it: Homo sapiens.
The target of test [3] is T1, Caspase-3 (Homo sapiens, UniProt P42574).
T1 sequence (P42574 whole entry): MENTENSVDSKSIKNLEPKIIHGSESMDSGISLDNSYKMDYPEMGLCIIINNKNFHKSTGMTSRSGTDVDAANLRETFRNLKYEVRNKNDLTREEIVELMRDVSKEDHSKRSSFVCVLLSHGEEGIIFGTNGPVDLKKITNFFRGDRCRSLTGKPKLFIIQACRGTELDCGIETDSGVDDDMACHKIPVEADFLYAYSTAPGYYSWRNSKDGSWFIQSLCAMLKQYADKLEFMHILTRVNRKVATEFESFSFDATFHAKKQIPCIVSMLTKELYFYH
Type of test: functional.

For test [4], the target named is T2, Sentrin-specific protease 7 (Homo sapiens, UniProt Q9BQF6).
T2 sequence (Q9BQF6 whole entry): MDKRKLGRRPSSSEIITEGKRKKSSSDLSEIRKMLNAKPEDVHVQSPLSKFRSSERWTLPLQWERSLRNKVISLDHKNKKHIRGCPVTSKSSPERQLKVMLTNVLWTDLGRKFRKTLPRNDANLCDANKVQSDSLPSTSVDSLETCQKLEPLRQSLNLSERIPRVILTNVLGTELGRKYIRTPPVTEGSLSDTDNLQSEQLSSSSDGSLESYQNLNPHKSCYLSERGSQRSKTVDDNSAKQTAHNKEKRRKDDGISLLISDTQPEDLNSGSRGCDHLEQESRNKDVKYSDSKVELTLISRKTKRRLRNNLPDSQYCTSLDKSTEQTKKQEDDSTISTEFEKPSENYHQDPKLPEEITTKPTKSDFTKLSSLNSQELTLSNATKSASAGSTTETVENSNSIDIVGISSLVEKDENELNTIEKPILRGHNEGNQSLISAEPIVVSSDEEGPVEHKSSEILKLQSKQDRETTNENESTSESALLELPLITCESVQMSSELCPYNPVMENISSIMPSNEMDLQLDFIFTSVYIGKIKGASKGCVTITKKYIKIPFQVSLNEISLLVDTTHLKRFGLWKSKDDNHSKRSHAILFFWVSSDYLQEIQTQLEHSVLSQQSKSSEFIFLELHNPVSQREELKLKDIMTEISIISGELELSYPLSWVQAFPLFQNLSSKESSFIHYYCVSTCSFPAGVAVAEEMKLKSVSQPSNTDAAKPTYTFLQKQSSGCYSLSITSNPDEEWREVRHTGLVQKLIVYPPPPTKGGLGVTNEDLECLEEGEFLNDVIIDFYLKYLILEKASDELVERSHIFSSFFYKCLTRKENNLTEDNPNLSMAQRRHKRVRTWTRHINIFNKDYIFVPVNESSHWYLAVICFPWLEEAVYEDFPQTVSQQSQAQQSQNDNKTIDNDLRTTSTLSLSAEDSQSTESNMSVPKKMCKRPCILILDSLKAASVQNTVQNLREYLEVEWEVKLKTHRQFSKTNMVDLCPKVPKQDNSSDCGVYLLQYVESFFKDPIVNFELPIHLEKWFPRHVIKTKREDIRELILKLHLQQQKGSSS
Type of test: functional.

For test [5], the target named is T3, Sentrin-specific protease 6 (Homo sapiens, UniProt Q9GZR1).
T3 sequence (Q9GZR1 whole entry): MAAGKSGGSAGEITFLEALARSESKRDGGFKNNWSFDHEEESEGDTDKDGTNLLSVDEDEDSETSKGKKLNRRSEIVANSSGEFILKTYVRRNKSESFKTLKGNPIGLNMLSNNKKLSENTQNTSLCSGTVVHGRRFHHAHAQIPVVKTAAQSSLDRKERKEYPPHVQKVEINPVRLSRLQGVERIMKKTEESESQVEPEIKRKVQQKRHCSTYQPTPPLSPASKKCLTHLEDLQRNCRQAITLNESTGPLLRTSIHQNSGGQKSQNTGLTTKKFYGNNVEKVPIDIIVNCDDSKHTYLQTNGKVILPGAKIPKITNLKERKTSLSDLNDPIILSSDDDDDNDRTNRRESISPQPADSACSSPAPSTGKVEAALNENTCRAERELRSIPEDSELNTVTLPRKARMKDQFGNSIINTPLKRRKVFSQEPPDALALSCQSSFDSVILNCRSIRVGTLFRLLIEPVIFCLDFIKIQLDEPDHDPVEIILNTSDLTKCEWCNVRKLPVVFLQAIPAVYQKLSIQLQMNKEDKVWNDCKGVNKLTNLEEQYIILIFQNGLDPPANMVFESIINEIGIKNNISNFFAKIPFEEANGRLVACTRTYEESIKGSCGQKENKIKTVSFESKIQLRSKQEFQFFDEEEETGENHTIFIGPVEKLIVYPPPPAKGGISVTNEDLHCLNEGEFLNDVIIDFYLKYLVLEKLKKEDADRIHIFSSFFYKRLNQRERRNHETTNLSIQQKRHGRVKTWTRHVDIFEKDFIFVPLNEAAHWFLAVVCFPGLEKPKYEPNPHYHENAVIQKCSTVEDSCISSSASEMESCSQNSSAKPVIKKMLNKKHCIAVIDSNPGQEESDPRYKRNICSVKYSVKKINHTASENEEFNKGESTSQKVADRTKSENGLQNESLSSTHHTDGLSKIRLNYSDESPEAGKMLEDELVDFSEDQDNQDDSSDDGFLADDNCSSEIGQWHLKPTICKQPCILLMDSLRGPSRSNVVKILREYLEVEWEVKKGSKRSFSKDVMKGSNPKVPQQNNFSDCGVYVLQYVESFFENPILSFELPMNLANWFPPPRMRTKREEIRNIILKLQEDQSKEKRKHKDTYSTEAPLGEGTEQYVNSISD
Type of test: functional.

In test [6] the target is T4, Sentrin-specific protease 8 (Homo sapiens, UniProt Q96LD8).
T4 sequence (Q96LD8 whole entry): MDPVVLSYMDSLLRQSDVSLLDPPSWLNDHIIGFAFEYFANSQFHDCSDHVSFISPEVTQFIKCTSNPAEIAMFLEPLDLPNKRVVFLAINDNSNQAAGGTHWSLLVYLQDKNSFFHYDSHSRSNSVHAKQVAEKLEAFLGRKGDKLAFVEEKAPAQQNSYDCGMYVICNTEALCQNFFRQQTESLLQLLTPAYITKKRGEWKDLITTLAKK
Type of test: functional.

For test [7], the system named is Streptococcus sp. 'group A'. In words: Streptococcus pyogenes SK(-)GAS viability under kanamycin – luminescence, BacTiterGlo, confirmation, counter-screen for streptokinase expression inhibitor project, dose response (AID 1900). The format is functional, organism-based.
For a further test, the system named is Streptococcus. In words: GAS UMAA2166 growth inhibition – luminescence, BacTiterGlo, counter-screen for streptokinase expression inhibitor project, dose response (AID 1915).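 Also: potency for reduction of bacterial viability or growth.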 Type of test: functional, organism-based.
Test [8] is described as follows: blockers of HIV-1 envelope-mediated cell-cell fusion – cherry-pick, dose response (AID 652057). Type of test: functional, cell-based.
Test [9] is described as follows: blockers of HIV-1 ZM109 envelope-driven cell-cell fusion – HeLa effector, CEM target cells, luciferase, cherry-pick, dose response (AID 652058).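 Also: luciferase signal from HIV-1 Env mediated cell-cell fusion of effector and target cells.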 The format is functional, cell-based.
A short description of test [10]: off-target signal loss in HeLa-CEM21 co-culture – HeLa F-luc CTL cells, cherry-picked, counter-screen for HIV-1 Env fusion inhibitor project, dose response (AID 652040).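 Also: potency for signal decrease marking cytotoxic or nonspecific inhibition.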 The format is functional, cell-based.
In test [11] the target is T4, Sentrin-specific protease 8. Briefly: inhibition of human SENP8 cleavage activity – biochemical, luminescence, SAR follow-up (AID 504501). The format is functional.
Test [12] deals with T1, Caspase-3. In words: SAR Analysis of small molecule inhibitors of Sentrin-specific proteases (SENPs) using a Caspase-3 Selectivity assay. [Related pubchem assays (depositor defined):AID2540, AID2599, AID434973, AID489001]. Type of test: functional.
Test [13] has as its target T3, Sentrin-specific protease 6. In words: SAR Analysis of small molecule inhibitors of Sentrin-specific protease 6 (SENP6) using a Luminescent assay. [Related pubchem assays (depositor defined):AID2582, AID2599]. Type of test: functional.
The target of test [14] is T2, Sentrin-specific protease 7. Briefly: inhibition of human SENP7 cleavage activity – biochemical, luminescence, SAR follow-up (AID 504497). Type of test: functional.

Chain of Luciferin 4-monooxygenase (P08659 whole entry): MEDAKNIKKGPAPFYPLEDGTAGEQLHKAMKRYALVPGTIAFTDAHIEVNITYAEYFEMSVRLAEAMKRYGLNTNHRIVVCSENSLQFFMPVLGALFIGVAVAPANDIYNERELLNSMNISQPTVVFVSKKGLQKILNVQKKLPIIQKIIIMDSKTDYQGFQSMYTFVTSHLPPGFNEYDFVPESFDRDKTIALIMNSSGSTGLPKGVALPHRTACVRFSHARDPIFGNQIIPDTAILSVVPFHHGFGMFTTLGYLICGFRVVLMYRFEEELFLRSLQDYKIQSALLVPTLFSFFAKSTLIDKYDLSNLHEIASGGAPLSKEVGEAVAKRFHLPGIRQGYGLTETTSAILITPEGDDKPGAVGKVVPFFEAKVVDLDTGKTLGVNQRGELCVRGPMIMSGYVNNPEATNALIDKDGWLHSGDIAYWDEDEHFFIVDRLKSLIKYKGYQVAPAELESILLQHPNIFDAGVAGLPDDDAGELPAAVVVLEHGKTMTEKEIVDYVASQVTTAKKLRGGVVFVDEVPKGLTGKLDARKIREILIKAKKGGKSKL

In general, GI50 refers to the concentration at which growth is held to half of that of the control. For `CCCSc1nc(COC(=O)NC)c(COC(=O)NC)n1C`, the GI50 in the test with P388/ADR is 23.8 µM (inactive); with SN12K1 it was > 100 µM (inactive); in the test on P388, 21.1 µM (inactive).
What is called CC50 is the concentration that lowers cell viability or growth by half. In general, EC50 refers to the concentration that produces a half-maximal response. One may read the IC50 as the midpoint of a concentration-inhibition curve. For the compound `CCCC(=O)Nc1ccc(-c2nc3cc(C)ccc3o2)cc1`, the CC50 in test [1] was 26.7 µM (active). Besides, the EC50 was 0.21 µM (active) in test [2] and > 50 µM (not active) in the test on HT-1080. The IC50 is 23.5 µM (active) on Caspase-3 [3], 4.35 µM (active) in [4], 64.7 µM (active) in [5] and 45.2 µM (active) in test [6].
Consider `Cc1cccc2sc(NC(=O)c3ccc(NS(=O)(=O)c4cccs4)cc3)nc12`, for which the figures for the EC50 (in test [7]; with Streptococcus) were 2.22 µM (active) and 3.77 µM (active), respectively. Further, the IC50 on Caspase-3 [3] is 36.5 µM (active); in [4], 7.27 µM (active); in test [5] it was 8.6 µM (active); in [6], 11.6 µM (active).
On to `N#Cc1ccccc1COC(=O)c1ccc2c(c1)OCCO2`, for which the IC50 is 19.9 µM (active) on Caspase-3 [3], 8.48 µM (active) in test [4], 22.5 µM (active) in test [5] and 27.5 µM (active) in [6].
By AC50 is commonly meant the concentration at which the activity in the assay is half-maximal. Take `Nc1ccn(C2OC(COC(=O)C34CC5CC(CC(C5)C3)C4)C(O)C2O)c(=O)n1` (stereo unspecified): the GI50 in the test with P388/ADR is 0.889 µM (active); with SN12K1 it was 4.46 µM (inactive); in the test on P388, 0.506 µM (active). In addition, the AC50 in test [8] was 0.652 µM (active); in test [9] it was < 0.26 µM (active); in test [10], 36.9 µM (active).
In the case of `COc1cc(NC(=O)Nc2ccc(F)cc2)cc2sc(NC(=O)c3ccccc3)nc12`, the IC50 (in [11]; on Caspase-3 [12]; in test [13]; in test [14]) was > 99 µM (inactive) throughout.
`C(=N\Nc1ccccc1)/c1cn(Cc2ccccc2)c2ccccc12`: the IC50 (in [11]; at Caspase-3 [12]; in [13]; in [14]) was > 99 µM (inactive) each time.
As to `CCc1ccc(-c2nc(/C=C/c3ccc(F)cc3)no2)cc1`, the IC50 (in [11]; at Caspase-3 [12]; in test [13]; in test [14]) was > 99 µM (inactive) in each case.
For `c1cc2n(n1)CCN2`, the GI50 was 294 µM (inactive) in the test with P388/ADR, 1150 µM (inactive) in the test with SN12K1 and 361 µM (inactive) with P388.
